{"source": "patent US9232796B2", "about": "“Herbicidal compositions comprising 4-amino-3-chloro-5-fluoro-6-(4-chloro-2-fluoro-3-methoxyphenyl) pyridine-2-carboxylic acid or a derivative thereof and acetyl-CoA carboxylase (ACCase) inhibitors” (DOW AGROSCIENCES LLC, priority 2012, dated 2016)", "key": {"FIMMI": {"test_system": "FIMMI", "test": "Example VI in-water applied ternary mixtures, greenhouse, transplanted paddy rice weeds", "format": "in vivo, Fimbristylis miliacea (L.) Vahl", "description": "(§1) Weed seeds or nutlets of the desired test plant species were planted in puddled soil (mud) prepared by mixing a shredded, non-sterilized mineral soil (50.5 percent silt, 25.5 percent clay, and 24 percent sand, with a pH of about 7.6 and an organic matter content of about 2.9 percent) and water at a 1:1 volumetric ratio. The prepared mud was dispensed in 365 mL aliquots into 16-ounce (oz.) non-perforated plastic pots with a surface area of 86.59 square centimeters (cm^2) leaving a headspace of 3 centimeters (cm) in each pot. Mud was allowed to dry overnight prior to planting or transplanting. Rice seeds were planted in Sun Gro MetroMix® 306 planting mixture, which typically has a pH of 6.0 to 6.8 and an organic matter content of about 30 percent, in plastic plug trays. Seedlings at the second or third leaf stage of growth were transplanted into 860 mL of mud contained in 32-oz. non-perforated plastic pots with a surface area of 86.59 cm^2 4 days prior to herbicide application. The paddy was created by filling the headspace of the pots with 2.5 to 3 cm of water. When required to ensure good germination and healthy plants, a fungicide treatment and/or other chemical or physical treatment was applied. The plants were grown for 4-22 days in a greenhouse with an approximate 14 hr. photoperiod which was maintained at about 29° C. during the day and 26° C. during the night. Nutrients were added as Osmocote® (19:6:12, N:P:K+minor nutrients) at 2 g per 16-oz. pot and 4 g per 32-oz. pot. Water was added on a regular basis to maintain the paddy flood, and supplemental lighting was provided with overhead metal halide 1000-Watt lamps as necessary. The plants were employed for testing when they reached the first through fourth true leaf stage.\n(§2) Treatments consisted of the benzyl ester of 4-amino-3-chloro-5-fluoro-6-(4-chloro-2-fluoro-3-methoxy-phenyl)pyridine-2-carboxylic acid (Compound A), formulated as an SC (suspension concentrate), an ACCase inhibitor herbicide, and a third herbicidal component, each applied alone and in ternary combination. Forms of compound A were applied on an acid equivalent basis.\n(§3) The ACCase inhibitor component was applied on an active ingredient basis and included cyhalofop-R-butyl formulated as Clincher® G and metamifop formulated as Metamifop EC. Other herbicidal components were applied on an active ingredient or acid equivalent basis depending on the compound and included penoxsulam formulated as Grasp® SC, bentazon sodium formulated as Basagran®, triclopyr […] (TEA) salt formulated as Grandstand® R, benzobicyclon formulated as Benzobicyclon, benfuresate formulated as Full Slot® WG, pyraclonil formulated as Pyraclon® Flowable, mefenacet (technical grade material), and pretilachlor (technical grade material).\n(§4) Treatment requirements for each compound or herbicidal component were calculated based upon the rates being tested, the concentration of active ingredient or acid equivalent in the formulation, an application volume of 1 mL per component per pot, and an application area of 86.59 cm^2 per pot.\n(§5) For formulated compounds, a measured amount was placed in an individual 100 or 200 mL glass vial and was dissolved in a volume of 1.25% (v/v) Agri-Dex® crop oil concentrate to obtain application solutions.\n(§6) For technical grade compounds, a weighed amount was placed in an individual 100 to 200 mL glass vial and was dissolved in a volume of acetone to obtain concentrated stock solutions.\n(§7) Applications were made by injecting with a pipetter appropriate amounts of the application solutions, into the aqueous layer of the paddy. Control plants were treated in the same manner with the solvent blank. Applications were made so that all treated plant material received the same concentrations of acetone and crop oil concentrate.\n(§8) The treated plants and control plants were placed in a greenhouse as described above and water was added as needed to maintain a paddy flood. […]"}, "ECHCG [1]": {"test_system": "ECHCG", "test": "Example VI in-water applied ternary mixtures, greenhouse, transplanted paddy rice weeds", "format": "in vivo, Echinochloa crus-galli (L.) Beauv.", "description": "as §1, §2, §3, §4, §5, §6, §7, §8"}, "IPOHE": {"test_system": "IPOHE", "test": "Example V (second) postemergence foliar-applied ternary mixtures, greenhouse, direct seeded rice weeds", "format": "in vivo, Ipomoea hederacea Jacq.", "description": "(§9) The treated plants and control plants were placed in a greenhouse as described above and watered by sub-irrigation to prevent wash-off of the test compounds. After approximately 3 weeks, the condition of the test plants as compared with that of the untreated plants was determined visually and scored on a scale of 0 to 100 percent where 0 corresponds to no injury or growth inhibition and 100 corresponds to complete kill.\nColby's equation was used to determine the herbicidal effects expected from the mixtures (Colby, S. R. 1967. Calculation of the synergistic and antagonistic response of herbicide combinations. Weeds 15:20-22.).\nThe following equation was used to calculate the expected activity of mixtures containing three active ingredients, A, B, and C: Expected=A+B+C−((A×B+A×C+B×C)/100)+(A×B×C/10000)"}, "ECHCG [2]": {"test_system": "ECHCG", "test": "Example V (second) postemergence foliar-applied ternary mixtures, greenhouse, direct seeded rice weeds", "format": "in vivo, Echinochloa crus-galli (L.) Beauv.", "settings": "200 gai/ha", "text": "Seeds or nutlets of the desired test plant species were planted in a soil matrix prepared by mixing a sandy loam or loam soil (e.g., 32 percent silt, 23 percent clay, and 45 percent sand, with a pH of about 6.5 and an organic matter content of about 1.9 percent) and calcareous grit in an 80 to 20 ratio. The soil matrix was contained in plastic pots with a volume of 1 quart and a surface area of 83.6 square centimeters (cm^2). When required to ensure good germination and healthy plants, a fungicide treatment and/or other chemical or physical treatment was applied. The plants were grown for 8-22 days in a greenhouse with an approximate 14 hr. photoperiod which was maintained at about 29° C. during the day and 26° C. during the night. Nutrients (Peters Excel® 15-5-15 5-Ca 2-Mg and iron chelate) were applied in the irrigation solution as needed and water was added on a regular basis. Supplemental lighting was provided with overhead metal halide 1000-Watt lamps as necessary. The plants were employed for testing when they reached the first through fourth true leaf stage.\nas §2, with “inhibitor,” for “inhibitor herbicide,”\nThe ACCase inhibitor component was applied on an active ingredient basis and included cyhalofop-R-butyl formulated as Clincher® SF, fenoxaprop-p-ethyl formulated as RiceStar® HT, and profoxydim formulated as Aura® 20EC. Other herbicidal components were applied on an active ingredient or acid equivalent basis depending on the compound and included penoxsulam formulated as Grasp® SC, bentazon sodium formulated as Basagran®, triclopyr […] (TEA) salt formulated as Grandstand® R, bispyribac sodium formulated as Regiment® 80WP, imazamox ammonium formulated as Beyond®, benzobicyclon, quinclorac formulated as Facet® 75DF, glyphosate dimethylammonium (DMA) salt formulated as Durango® DMA, glufosinate ammonium formulated as Ignite® 280, fentrazamide formulated as an emulsifiable concentrate (EC), propyrisulfuron formulated as Zeta One®, and indanofan (technical grade material).\n(§10) Treatment requirements were calculated based upon the rates being tested, the concentration of active ingredient or acid equivalent in the formulation, and a 12 mL application volume at a rate of 187 L/ha.\n(§11) For treatments comprised of formulated compounds, measured amounts of compounds were placed individually in 25 mL glass vials and diluted in a volume of 1.25% (v/v) Agri-Dex® crop oil concentrate to obtain 12× stock solutions. […] Application solutions were prepared by adding an appropriate amount of each stock solution (e.g., 1 mL) and diluted to the appropriate final concentrations with the addition of 9 mL of an aqueous mixture of 1.25% (v/v) crop oil concentrate so that the final spray solutions contained 1.25% (v/v) crop oil concentrate.\nAs required, additional water and/or 97:3 v/v acetone/DMSO was added to individual application solutions so that the final acetone and DMSO concentrations of the application solutions being compared were 8.1% and 0.25%, respectively.\nAll stock solutions and applications solutions were visually inspected for compound compatibility prior to application. Spray solutions were applied to the plant material with an overhead Mandel track sprayer equipped with a 8002E nozzles calibrated to deliver 187 L/ha over an application area of 0.503 m^2 at a spray height of 18 inches (46 cm) above average plant canopy height. Control plants were sprayed in the same manner with the solvent blank.\nThe treated plants and control plants were placed in a greenhouse as described above and watered by sub-irrigation to prevent wash-off of the test compounds. […]"}, "CYPRO": {"test_system": "CYPRO", "test": "Example VI in-water applied ternary mixtures, greenhouse, transplanted paddy rice weeds", "format": "in vivo, Cyperus rotundus L.", "settings": "21 DAA", "description": "as §1, §2, §3, §4, §5, §6, §7, §8"}, "CYPIR": {"test_system": "CYPIR", "test": "Example I postemergence foliar-applied, greenhouse, direct seeded rice weeds", "format": "in vivo, Cyperus iria L.", "text": "Seeds or nutlets of the desired test plant species were planted in a soil matrix prepared by mixing a loam or sandy loam soil (e.g., 28.6 percent silt, 18.8 percent clay, and 52.6 percent sand, with a pH of about 5.8 and an organic matter content of about 1.8 percent) and calcareous grit in an 80 to 20 ratio. The soil matrix was contained in plastic pots with a volume of 1 quart and a surface area of 83.6 square centimeters (cm^2). When required to ensure good germination and healthy plants, a fungicide treatment and/or other chemical or physical treatment was applied. The plants were grown for 8-22 days in a greenhouse with an approximate 14 hr. photoperiod which was maintained at about 29° C. during the day and 26° C. during the night. Nutrients (Peters Excel® 15-5-15 5-Ca 2-Mg and iron chelate) were applied in the irrigation solution as needed and water was added on a regular basis. Supplemental lighting was provided with overhead metal halide 1000-Watt lamps as necessary. The plants were employed for testing when they reached the first through fourth true leaf stage.\nTreatments consisted of the acid or esters of 4-amino-3-chloro-5-fluoro-6-(4-chloro-2-fluoro-3-methoxy-phenyl)pyridine-2-carboxylic acid (Compound A), each formulated as an SC (suspension concentrate), and various herbicidal components alone and in combination.\nOther herbicidal components were applied on an acid equivalent (ae) or active ingredient (ai) basis and included acetyl coA carboxylase (ACCase)-inhibiting herbicides (cyclohexanedione and aryloxyphenoxypropionate chemical classes) cyhalofop-butyl formulated as Clincher® SF (285 gr ai/L EC), diclofop-methyl formulated as Hoelon® 3EC, fenoxaprop-p-ethyl+isoxadifen-ethyl formulated as RiceStar® HT (0.58 lb./gal EC), fenoxaprop-p-ethyl+mefenpyr diethyl formulated as Puma® IEC, metamifop formulated as Metamifop EC, haloxyfop-methyl formulated as Gallant Super®, fluazifop-p-butyl formulated as Fusilade® DX, quizalofop-p-ethyl formulated as Assure® II, profoxydim formulated as Aura® 20EC, clethodim applied as Intensity®, sethoxydim formulated as Poast®, and tralkoxydim formulated as Achieve®.\nas §10\nas §11, with “crop oil concentrated to obtain” for “crop oil concentrate to obtain”, “addition of 10 mL of” for “addition of 9 mL of”, “solutions contained 1.25+/−0.05% (v/v) crop” for “solutions contained 1.25% (v/v) crop”\nAll stock solutions and applications solutions were visually inspected for compound compatibility prior to application. Spray solutions were applied to the plant material with an overhead Mandel track sprayer equipped with a 8002E nozzles calibrated to deliver 187 L/ha over an application area of 0.503 m^2 at a spray height of 18 to 20 inches (46 to 50 cm) above average plant canopy height. Control plants were sprayed in the same manner with the solvent blank.\nas §9, with “kill. […]” for “kill.”"}}, "data": [{"compound": "CC(C)N1C(=O)c2ccccc2NS1(=O)=O", "note": "[Bentazon Sodium]", "values": [{"measurement": "Visual Weed Control (%) - 21 DAA FIMMI Obs", "setting": "FIMMI; 210 gae/ha, first set", "result": 17, "unit": "%"}, {"measurement": "Visual Weed Control (%) - 21 DAA FIMMI Obs", "setting": "FIMMI; 420 gae/ha, second set", "result": 30, "unit": "%"}, {"measurement": "Visual Weed Control (%) - 21 DAA ECHCG Obs", "setting": "ECHCG [1]; 210 gae/ha, first set", "result": 0, "unit": "%"}, {"measurement": "Visual Weed Control (%) - 21 DAA ECHCG Obs", "setting": "ECHCG [1]; 420 gae/ha, second set", "result": 15, "unit": "%"}]}, {"compound": "CS(=O)(=O)c1ccc(C(=O)C2=C(Sc3ccccc3)C3CCC(C3)C2=O)c(Cl)c1", "note": "(stereo not shown) [Benzobicyclon]", "values": [{"measurement": "Visual Weed Control (%) - 21 DAA IPOHE Obs", "setting": "IPOHE; 200 gai/ha", "result": 55, "unit": "%"}, {"measurement": "Visual Weed Control (%) - 21 DAA ECHCG Obs", "setting": "ECHCG [2]", "result": 0, "unit": "%"}]}, {"compound": "CCCOCCN(C(=O)CCl)c1c(CC)cccc1CC", "note": "[Pretilachlor]", "values": [{"measurement": "Visual Weed Control (%) - 21 DAA CYPRO Obs", "setting": "CYPRO; Table 70, 25 gai/ha", "result": 0, "unit": "%"}, {"measurement": "Visual Weed Control (%) - 21 DAA CYPRO Obs", "setting": "CYPRO; Table 70, 50 gai/ha", "result": 0, "unit": "%"}]}, {"compound": "CN(C(=O)COc1nc2ccccc2s1)c1ccccc1", "note": "[Mefenacet]", "values": [{"measurement": "Visual Weed Control (%) - 21 DAA CYPRO Obs", "setting": "CYPRO; Table 69, 75 gai/ha", "result": 0, "unit": "%"}, {"measurement": "Visual Weed Control (%) - 21 DAA CYPRO Obs", "setting": "CYPRO; Table 69, 150 gai/ha", "result": 0, "unit": "%"}]}, {"compound": "COC(=O)C(C)Oc1ccc(Oc2ccc(Cl)cc2Cl)cc1", "note": "(stereo not shown) [Diclofop-methyl, methyl 2-[4-(2,4-dichlorophenoxy)phenoxy]propanoate]", "values": [{"measurement": "Visual Weed Control (%) - 22 DAA CYPIR Obs", "setting": "CYPIR; 280 gai/ha", "result": 0, "unit": "%"}, {"measurement": "Visual Weed Control (%) - 22 DAA CYPIR Obs", "setting": "CYPIR; 560 gai/ha", "result": 0, "unit": "%"}, {"measurement": "Visual Weed Control (%) - 22 DAA CYPIR Obs", "setting": "CYPIR; 1120 gai/ha", "result": 0, "unit": "%"}]}, {"compound": "CCS(=O)(=O)Oc1ccc2c(c1)C(C)(C)CO2", "note": "[Benfuresate]", "values": [{"measurement": "Visual Weed Control (%) - 21 DAA ECHCG Obs", "setting": "ECHCG [1]; 150 gai/ha", "result": 0, "unit": "%"}]}, {"compound": "CC(C)N1C(=O)c2ccccc2NS1(=O)=O", "note": "[Bentazon sodium]", "values": [{"measurement": "Visual Weed Control (%) - 21 DAA IPOHE Obs", "setting": "IPOHE; 420 gae/ha, lower sub-table", "result": 75, "unit": "%"}, {"measurement": "Visual Weed Control (%) - 21 DAA IPOHE Obs", "setting": "IPOHE; 420 gae/ha, upper sub-table", "result": 53, "unit": "%"}]}]}
